Results: ChEMBL document CHEMBL1131493, “Inhibitors of farnesyl protein transferase. 4-Amido, 4-carbamoyl, and 4-carboxamido derivatives of 1-(8-chloro-6,11-dihydro-5H-benzo[5,6]- cyclohepta[1,2-b]pyridin-11-yl)piperazine and 1-(3-bromo-8-chloro-6,11- dihydro-5H-benzo[5,6]cyclohepta[1,2-b]pyridin-11-yl)piperazine” (J Med Chem, 1998)

Biological target: Protein farnesyltransferase (Homo sapiens, UniProt P49354+P49356)
Assay: In vitro inhibition of farnesyltransferase farnesylation of the H-ras oncogene
Format: protein-complex assay
Design: Inhibition: concentration or dose not given beside the values

Compound	IC50 [nM]	Inhibition [%]
CC(=O)N1CCC(CC(=O)N2CCN([C@@H]3c4ccc(Cl)cc4CCc4cccnc43)CC2)CC1	3500	–
O=C(c1cccc2c1ccc[n+]2[O-])N1CCN(C2c3ccc(Cl)cc3CCc3cc(Br)cnc32)CC1 (configuration not stated)	–	38
CC(=O)N1CCC(C(=O)N2CCN([C@@H]3c4ccc(Cl)cc4CCc4cccnc43)CC2)CC1	4100	–
O=C(Oc1ccccc1)N1CCN(C2c3ccc(Cl)cc3C=Cc3cccnc32)CC1 (configuration not stated)	880	–
CC(C)(C(=O)N1CCN(C2c3ccc(Cl)cc3CCc3cccnc32)CC1)c1cc[n+]([O-])cc1 (configuration not stated)	2200	–
CN1CCC(CC(=O)N2CCN([C@H]3c4ccc(Cl)cc4CCc4cccnc43)CC2)CC1	640	–
C[C@H](N)C(=O)N1CCC(CC(=O)N2CCN(C3c4ccc(Cl)cc4CCc4cccnc43)CC2)CC1 (some centres not stated)	2500	–
CN1CCCC(CC(=O)N2CCN([C@@H]3c4ccc(Cl)cc4CCc4cccnc43)CC2)C1 (some centres not stated)	700	–
O=C(c1cccc2ncccc12)N1CCN(C2c3ccc(Cl)cc3CCc3cccnc32)CC1 (configuration not stated)	–	15
CN1CCCC(C(=O)N2CCN(C3c4ccc(Cl)cc4CCc4cccnc43)CC2)C1 (configuration not stated)	6800	–
O=C(C1CCCC2NCCCC21)N1CCN(C2c3ccc(Cl)cc3CCc3cc(Br)cnc32)CC1 (configuration not stated)	–	23
O=C(Oc1ccc[n+]([O-])c1)N1CCN(C2c3ccc(Cl)cc3CCc3cccnc32)CC1 (configuration not stated)	3100	–
O=C(Cc1cccnc1)N1CCN(C(c2ccncc2)c2ccc(Cl)cc2)CC1 (configuration not stated)	48000	–
CN1CCCC(CC(=O)N2CCN([C@H]3c4ccc(Cl)cc4CCc4cccnc43)CC2)C1 (some centres not stated)	600	–
O=C(Cc1ccncc1)NCCNC1c2ccc(Cl)cc2CCc2cccnc21 (configuration not stated)	25800	–
N[C@@H](CS)CN1CCN(C2c3ccc(Cl)cc3CCc3cc(Br)cnc32)CC1 (some centres not stated)	–	19
N[C@@H](CS)C(=O)N1CCN(C2c3ccc(Cl)cc3CCc3cc(Br)cnc32)CC1 (some centres not stated)	2100	–
O=C(c1cccc2cccnc12)N1CCN(C2c3ccc(Cl)cc3CCc3cc(Br)cnc32)CC1 (configuration not stated)	1800	–
O=C(Cc1cc[n+]([O-])cc1)N1CCN(C2c3ccc(Cl)cc3CCc3cccnc32)CC1 (configuration not stated)	740	–
O=C(c1cccc2ncccc12)N1CCN(C2c3ccc(Cl)cc3CCc3cc(Br)cnc32)CC1 (configuration not stated)	–	38
COC(=O)N1CCC(CC(=O)N2CCN(C3c4ccc(Cl)cc4CCc4cccnc43)CC2)CC1 (configuration not stated)	1300	–

Next, values leading:

IC50 [nM]	Inhibition [%]	Compound
45	–	NC(=O)N1CCC(CC(=O)N2CCN(C3c4ccc(Cl)cc4C=Cc4cc(Br)cnc43)CC2)CC1 (configuration not stated)
–	35	CN1CCC(OC(=O)N2CCN(C3c4ccc(Cl)cc4CCc4cccnc43)CC2)CC1 (configuration not stated)
2500	–	NCNC(=O)N1CCC(CC(=O)N2CCN(C3c4ccc(Cl)cc4CCc4cccnc43)CC2)CC1 (configuration not stated)
3300	–	CC(C)(C(=O)N1CCN(C2c3ccc(Cl)cc3CCc3cccnc32)CC1)c1ccccc1 (configuration not stated)
20200	–	CN(C)c1ccc(C(=O)N2CCN(C3c4ccc(Cl)cc4CCc4cccnc43)CC2)cc1 (configuration not stated)
1800	–	O=C(Nc1cc[n+]([O-])cc1)N1CCN(C2c3ccc(Cl)cc3CCc3cccnc32)CC1 (configuration not stated)
78	–	O=C(CC1CCNCC1)N1CCN([C@H]2c3ccc(Cl)cc3CCc3cc(Br)cnc32)CC1
3100	–	CC(=O)N1CCCC(CC(=O)N2CCN(C3c4ccc(Cl)cc4CCc4cccnc43)CC2)C1 (configuration not stated)
880	–	CCCNC(=O)N1CCC(CC(=O)N2CCN(C3c4ccc(Cl)cc4CCc4cccnc43)CC2)CC1 (configuration not stated)
1290	–	CC(C)(C)OC(=O)N1CCC(CC(=O)N2CCN(C3c4ccc(Cl)cc4CCc4cc(Br)cnc43)CC2)CC1 (configuration not stated)
4300	–	CC(=O)N1CCCC(C(=O)N2CCN(C3c4ccc(Cl)cc4CCc4cccnc43)CC2)C1 (configuration not stated)
230	–	N[C@@H](CS)C(=O)N1CCC(CC(=O)N2CCN(C3c4ccc(Cl)cc4CCc4cc(Br)cnc43)CC2)CC1 (some centres not stated)
1740	–	CC(C)(C(=O)N1CCN(C2c3ccc(Cl)cc3CCc3cccnc32)CC1)c1ccncc1 (configuration not stated)
–	45	NC(=O)N1CCCc2c(C(=O)N3CCN(C4c5ccc(Cl)cc5CCc5cc(Br)cnc54)CC3)cccc21 (configuration not stated)
880	–	CNC(=S)N1CCC(CC(=O)N2CCN(C3c4ccc(Cl)cc4CCc4cccnc43)CC2)CC1 (configuration not stated)
470	–	CN1CCC(NC(=O)N2CCN(C3c4ccc(Cl)cc4CCc4cccnc43)CC2)CC1 (configuration not stated)
